The target of data set [1] is pfDHODH (Plasmodium falciparum (isolate 3D7), UniProt Q08210). Briefly: DHODH chromogen reduction (DCIP) assay, pfDHODH. It counts as biochemical, P. falciparum. The note with it: read-out: pfDHODH IC50.
In data set [2] the target is hsDHODH (Homo sapiens (Human), UniProt Q02127). As to the kind of experiment: DCIP assay, hsDHODH. It counts as biochemical. The note with it: Table 3; DCIP assay, 20 nM hsDHODH; read-out: hsDHODH IC50. The text has this:
Type 2 DHODH activity was monitored with either the direct assay measuring the formation of orotate or via a chromogen reduction assay using DCIP. Although the extinction coefficient and absorption wavelength are preferable for the chromogen reduction assay, the inorganic electron acceptor DCIP can be utilized by DHODH as the final electron acceptor in lieu of CoQn when the endogenous substrate is at a low concentration. As such, the direct assay was used to measure the binding affinity of pfDHODH to CoQD and L-DHO. The enzymatic reaction was performed by varying the L-DHO concentration (1-400 μM) or CoQD concentration (1-200 μM) while keeping the other substrate constant and in excess. The formation of orotate was measured continuously at 296 nm (ε296=4.3 mM^−1 cm^−1). Inhibition of DHODH by small molecules was evaluated using the chromogen based assay with a final substrate concentration of 200 μM L-DHO, 18 μM CoQD, and 100 μM DCIP, unless otherwise noted. The reduction of DCIP was monitored at 600 nm (ε600=18.8 mM^−1 cm^−1).
Substrate specificity and enzyme inhibition data was analyzed with GraphPad Prism Version 4 for Windows (GraphPad Software). Kinetic constants were calculated by non-linear regression fitting of the data to the Michaelis-Menten equation [36]. IC50 values were determined by non-linear regression fitting of the data to Equation 1: […]

The test system of data set [3] is P. falciparum 3D7. Briefly: Inhibition of in vitro P. falciparum culture, [3H]-hypoxanthine uptake, 3D7. As to conditions: Plasmodium falciparum; for pEC50: 3D7, Table 2b, read-out: 3D7 EC50; for pIC50: 3D7, Table 3, [3H]-hypoxanthine uptake, read-out: 3D7 IC50. It counts as cell-based. The method in brief:
(§1)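 Parasite growth inhibition measured as relative reduction of [3H]-hypoxanthine uptake in in vitro cultures. Values from non-linear regression fit, using relative growth velocity in place of product-formation rate.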

The test system of data set [4] is P. falciparum Dd2. Briefly: Inhibition of in vitro P. falciparum culture, [3H]-hypoxanthine uptake, Dd2. It counts as cell-based. The note with it: Plasmodium falciparum; for pEC50: DD2, Table 2b, read-out: Dd2 EC50; for pIC50: DD2, Table 3, [3H]-hypoxanthine uptake, read-out: Dd2 IC50. Put shortly:
as §1

Data set [5] is described as follows: Solubility measurement. It counts as physicochemical. The note with it: aqueous buffer, thermodynamic from solid; read-out: Solubility. The text has this:
Many standard techniques are known in the art to establish the solubility of a compound in a particular solvent. The following description is one such technique that could be used to determine the solubility: Equilibrium solubility measurements start with the solid form of the compound (crystalline form preferred). The powder is physically mixed with an aqueous buffer (defined pH) until equilibrium is reached. Either centrifugation or filtration can be used to separate the solution from the remaining solid. The amount dissolved in the solution can be determined by any one of many known methods including HPLC or UV/Vis spectroscopic techniques.

A short description of data set [6]: Permeability. It counts as in vitro ADME. The note with it: Caco-2. Here is the method: Permeability assays using the Caco-2 colon carcinoma cell line are being used throughout the pharmaceutical industry to estimate the ability of potential drug compounds to cross the intestinal epithelium. Caco-2 cell permeability studies are performed using Caco-2 cell monolayers grown on microporous membranes in multiwell insert systems. With the inserts suspended in the wells of multiwell plates, test compounds can be added to either the upper (apical) or lower (basolateral) chamber to measure permeability in the absorptive (apical to basolateral) or secretive (basolateral to apical) directions. Samples are then taken from the opposite chamber at various time intervals to measure the amount of test compound that has crossed the cell monolayer. A representative method to generate permeability data similar to that in Table 3 can be found in Alsenz, J; Haenel, E. “Development of a 7-Day, 96-Well Caco-2 Permeability Assay with High-Throughput Direct UV Compound Analysis.” Pharmaceutical Research 2003 20(12): p 1961-1969.
Parallel artificial membrane permeability assay (PAMPA) utilizes a simple phospholipid-coated filter disc to measure membrane permeability. It was developed as an alternative to the low throughput. Caco-2 cell permeability assay used to correlate passive permeability with in vivo oral absorption. A representative publication disclosing this method is Kerns, E H; Di, L; Petusky, S; Farris, M; Ley, R; Jupp, P. “Combined application of parallel artificial membrane permeability assay and Caco-2 permeability assays in drug discovery.” J. Pharma Sci. 2004, 93 (6), pages 1440-53.
Cell culture methods (e.g. Caco-2, HT-29 and MDC) and physicochemical methods such as PAMPA and immobilized artificial membrane (IAM) columns are known in the art and can be used to obtain data such as that in Table 3. Hidalgo, I J; “Assessing the absorption of new pharmaceuticals.” Curr Top Med. Chem. 2001 November; 1(5): p 385-401.
Background: Passage across Caco-2 layers is used to estimate intestinal permeability.

The nature of data set [7]: Log D measurement. It is filed as physicochemical. The note with it: octanol/water; read-out: LogD. The text has this: Many standard techniques are known in the art to establish the distribution coefficient of a compound between two particular solvents. The following description is one such technique that could be used to determine the distribution coefficient: The shake-flask method, which consists of dissolving some of the compound in a volume of octanol and water, then physically shaking the mixture and allowing the two solvents to fully separate. The concentration of the compound in each solvent is then measured. The most common method of measuring the distribution of the solute is by HPLC or UV/Vis spectroscopic techniques.

Data set [8] concerns the target Cytochrome P450 1A2 (Homo sapiens (Human), UniProt P05177). It is filed as in vitro ADME. The text has this:
(§2) Rapid screening for cytochrome P450 inhibitors is part of the current paradigm for avoiding development of drugs likely to give clinical pharmacokinetic drug-drug interactions and associated toxicities. There are commercially available assays for such screenings. For example, BD Biosciences (http://www.bdbiosciences.com/index.shtml) provides a technical bulletin describing a detailed, step-by-step procedure for the performance of the high throughput cytochrome P450 inhibition testing method.

Data set [9] addresses Cytochrome P450 2C19 (Homo sapiens (Human), UniProt P33261). As to the kind of experiment: Cytochrome P450 inhibition, 2C19. It is filed as in vitro ADME.
Text: as §2

In data set [10] the target is Cytochrome P450 2C9 (Homo sapiens (Human), UniProt P11712). Briefly: Cytochrome P450 inhibition, 2C9. It counts as in vitro ADME.
Text: as §2

The target of data set [11] is Cytochrome P450 2D6 (Homo sapiens (Human), UniProt P10635). Briefly: Cytochrome P450 inhibition, 2D6. It is filed as in vitro ADME.
Text: as §2

For data set [12], the target named is Cytochrome P450 3A4 (Homo sapiens (Human), UniProt P08684). As to the kind of experiment: Cytochrome P450 inhibition, 3A4. It is filed as in vitro ADME.
Text: as §2

A short description of data set [13]: Hepatic clearance, human. It is filed as in vitro ADME. An excerpt: (§3) Clearance of drug by the liver will depend on the rate of delivery of drug to the liver (the hepatic blood flow) and on the efficiency of removal of drug which is presented to it (the extraction ratio). The hepatic clearance of compounds can be determined by standard methods known in the art. Such methods are described in, for example, Naritomi, Y; Terashita, S; Kagayama, A; Sugiyama, Y. “Utility of Hepatocytes in Predicting Drug Metabolism: Comparison of Hepatic Intrinsic Clearance in Rats and Humans in Vivo and in Vitro.” 2003, 31 (5): pages 580-588.

Data set [14] can be described thus: Hepatic clearance, rat. It is filed as in vitro ADME.
Text: as §3

Setting [15] is: Table 3, DCIP assay, 20 nM pfDHODH.

Molecules are shown by their SMILES. pEC50, pIC50: −log10 of the molar value. Where two headings read alike, the source gives them in different places.

Sequence of pfDHODH (Q08210 159-565 limits assumed): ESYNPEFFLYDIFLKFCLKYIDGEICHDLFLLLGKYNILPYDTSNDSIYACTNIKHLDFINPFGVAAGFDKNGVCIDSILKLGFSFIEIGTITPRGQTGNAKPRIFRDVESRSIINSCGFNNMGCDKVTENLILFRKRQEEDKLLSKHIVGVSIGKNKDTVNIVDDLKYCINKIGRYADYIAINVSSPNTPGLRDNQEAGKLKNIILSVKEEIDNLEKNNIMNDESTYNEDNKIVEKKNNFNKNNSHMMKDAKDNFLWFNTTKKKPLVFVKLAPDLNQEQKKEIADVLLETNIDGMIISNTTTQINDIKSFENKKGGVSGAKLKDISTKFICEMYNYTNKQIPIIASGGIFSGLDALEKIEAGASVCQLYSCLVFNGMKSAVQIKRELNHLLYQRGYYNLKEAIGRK
Sequence of Cytochrome P450 3A4 (P08684 whole entry): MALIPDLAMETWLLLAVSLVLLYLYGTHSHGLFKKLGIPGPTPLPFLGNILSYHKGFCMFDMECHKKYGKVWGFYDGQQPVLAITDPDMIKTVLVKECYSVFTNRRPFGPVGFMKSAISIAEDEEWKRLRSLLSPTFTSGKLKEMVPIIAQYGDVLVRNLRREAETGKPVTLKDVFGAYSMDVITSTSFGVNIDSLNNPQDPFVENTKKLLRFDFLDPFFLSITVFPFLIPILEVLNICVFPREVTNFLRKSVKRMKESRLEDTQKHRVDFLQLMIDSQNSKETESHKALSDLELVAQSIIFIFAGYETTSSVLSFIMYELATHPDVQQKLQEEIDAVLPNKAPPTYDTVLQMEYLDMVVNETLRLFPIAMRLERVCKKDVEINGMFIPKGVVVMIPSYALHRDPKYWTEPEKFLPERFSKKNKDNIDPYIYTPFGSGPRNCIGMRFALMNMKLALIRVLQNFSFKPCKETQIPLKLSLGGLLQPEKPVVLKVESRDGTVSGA
Sequence of Cytochrome P450 1A2 (P05177 whole entry): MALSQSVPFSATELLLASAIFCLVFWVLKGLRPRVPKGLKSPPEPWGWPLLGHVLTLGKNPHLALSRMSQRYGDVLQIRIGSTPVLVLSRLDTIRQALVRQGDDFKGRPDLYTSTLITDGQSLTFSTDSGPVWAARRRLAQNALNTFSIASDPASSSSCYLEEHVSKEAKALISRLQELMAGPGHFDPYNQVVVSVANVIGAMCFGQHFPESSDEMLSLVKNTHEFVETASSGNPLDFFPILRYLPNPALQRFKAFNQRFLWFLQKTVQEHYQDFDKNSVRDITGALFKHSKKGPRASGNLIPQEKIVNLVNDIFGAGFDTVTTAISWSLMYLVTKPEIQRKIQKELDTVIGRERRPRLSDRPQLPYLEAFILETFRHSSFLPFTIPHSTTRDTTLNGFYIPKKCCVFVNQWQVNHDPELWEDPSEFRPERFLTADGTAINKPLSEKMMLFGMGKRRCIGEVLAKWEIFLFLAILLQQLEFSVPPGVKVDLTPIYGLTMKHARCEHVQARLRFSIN
Sequence of Cytochrome P450 2C19 (P33261 whole entry): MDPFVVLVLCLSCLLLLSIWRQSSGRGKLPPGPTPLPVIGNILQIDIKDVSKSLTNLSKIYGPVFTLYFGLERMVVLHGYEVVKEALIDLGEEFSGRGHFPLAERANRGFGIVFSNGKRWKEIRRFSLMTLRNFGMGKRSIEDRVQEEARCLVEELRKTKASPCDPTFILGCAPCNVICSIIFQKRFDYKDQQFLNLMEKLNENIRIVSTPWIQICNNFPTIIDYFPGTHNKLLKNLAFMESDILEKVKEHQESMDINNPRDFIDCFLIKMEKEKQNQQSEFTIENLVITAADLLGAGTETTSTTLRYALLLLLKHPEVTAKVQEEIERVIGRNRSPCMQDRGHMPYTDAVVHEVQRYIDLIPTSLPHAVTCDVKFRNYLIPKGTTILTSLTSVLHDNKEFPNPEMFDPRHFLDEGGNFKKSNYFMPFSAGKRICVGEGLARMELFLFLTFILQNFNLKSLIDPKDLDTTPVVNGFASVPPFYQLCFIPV
Sequence of Cytochrome P450 2D6 (P10635 whole entry): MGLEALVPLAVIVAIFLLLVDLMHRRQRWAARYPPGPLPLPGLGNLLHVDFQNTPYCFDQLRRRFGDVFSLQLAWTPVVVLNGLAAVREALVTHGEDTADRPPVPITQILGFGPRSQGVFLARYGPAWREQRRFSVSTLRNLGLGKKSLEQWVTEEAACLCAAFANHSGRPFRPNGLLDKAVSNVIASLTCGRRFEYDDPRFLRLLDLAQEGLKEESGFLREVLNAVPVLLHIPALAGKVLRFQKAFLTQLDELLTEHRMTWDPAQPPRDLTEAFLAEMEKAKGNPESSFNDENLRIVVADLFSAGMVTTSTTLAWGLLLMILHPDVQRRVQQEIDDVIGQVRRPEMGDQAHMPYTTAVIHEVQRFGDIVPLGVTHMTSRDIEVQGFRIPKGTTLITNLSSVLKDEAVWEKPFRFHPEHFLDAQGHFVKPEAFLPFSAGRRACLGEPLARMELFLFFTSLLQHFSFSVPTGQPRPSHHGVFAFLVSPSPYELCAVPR
Sequence of hsDHODH (Q02127 29-395 limits assumed): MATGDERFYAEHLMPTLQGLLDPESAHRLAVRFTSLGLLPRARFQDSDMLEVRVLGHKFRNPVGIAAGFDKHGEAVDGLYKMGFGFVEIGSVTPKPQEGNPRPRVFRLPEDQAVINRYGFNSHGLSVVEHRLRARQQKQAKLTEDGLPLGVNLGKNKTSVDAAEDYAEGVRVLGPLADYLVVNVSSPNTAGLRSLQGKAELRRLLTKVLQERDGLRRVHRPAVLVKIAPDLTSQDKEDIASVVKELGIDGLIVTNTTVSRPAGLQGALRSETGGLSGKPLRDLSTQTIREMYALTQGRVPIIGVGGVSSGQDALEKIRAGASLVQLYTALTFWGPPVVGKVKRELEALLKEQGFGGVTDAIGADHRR
Sequence of Cytochrome P450 2C9 (P11712 whole entry): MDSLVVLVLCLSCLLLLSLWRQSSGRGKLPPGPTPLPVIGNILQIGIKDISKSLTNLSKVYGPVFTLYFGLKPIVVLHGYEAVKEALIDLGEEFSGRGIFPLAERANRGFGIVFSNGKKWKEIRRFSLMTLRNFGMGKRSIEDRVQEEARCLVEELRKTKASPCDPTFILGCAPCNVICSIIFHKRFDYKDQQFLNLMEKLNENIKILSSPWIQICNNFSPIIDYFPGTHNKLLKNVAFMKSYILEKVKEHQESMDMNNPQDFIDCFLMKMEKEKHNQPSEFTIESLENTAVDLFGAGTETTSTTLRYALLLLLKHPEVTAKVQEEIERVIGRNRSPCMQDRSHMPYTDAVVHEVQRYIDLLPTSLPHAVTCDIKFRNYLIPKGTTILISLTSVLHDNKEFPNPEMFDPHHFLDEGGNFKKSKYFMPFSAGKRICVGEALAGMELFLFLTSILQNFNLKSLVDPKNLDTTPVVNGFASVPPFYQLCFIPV

For orientation: pIC50 means the IC50 on a negative log10 scale, so that one unit is a factor of ten. Usually pEC50 stands for the EC50 on a negative log10 scale, so that one unit is a factor of ten. What is called solubility is the dissolved amount per volume that the medium holds. What is called Papp is the rate of passage across a membrane or cell layer, normalised by area and donor concentration. A word on the logD: it is the decadic logarithm of the distribution of all forms, ionised or not, between an organic phase and buffer at a given pH. For orientation: microsomal CLint means the rate of metabolic loss divided by the concentration. Read a high microsomal CLint as faster metabolism. For the compound `CCCNC(=O)c1ccc(N2CCCCC2)s1` [Compound 8, 5-(piperidin-1-yl)-N-propylthiophene-2-carboxamide], the negative-log IC50 (pIC50) in [1] (Table 2b) was 3.64; in data set [1] (setting [15]), less than 4.52; in data set [2] it was less than 4.52; in data set [3], less than 5.00; in data set [4] it was less than 5.00. In addition, the pEC50 in data set [3] and in data set [4] was less than 5.00 throughout. The solubility in data set [5] was more than 30 µg/mL. The Papp in [6] was 43 ×10⁻⁶ cm/s. In data set [7], the logD was found to be 3.2. Also, the “Cytochrome P450 Inhibition, 1A2” value in data set [8] is recorded as more than 5.0 in 1A2 μM. In addition, the “Cytochrome P450 Inhibition, 2C19” value in [9] is recorded as more than 5.0 in 2C19 μM. In addition, the “Cytochrome P450 Inhibition, 2C9” value in data set [10] was more than 5.0 in 2C9 μM. Besides, the “Cytochrome P450 Inhibition, 2D6” value in data set [11] is listed as more than 5.0 in 2D6 μM. Further, the “Cytochrome P450 Inhibition, 3A4” value in data set [12] is more than 5.0 in 3A4 μM. For the same compound, the results for the microsomal CLint in data set [13] and in [14] were more than 72 µL/min/mg and more than 119 µL/min/mg, respectively.

In the case of `CCCNC(=O)c1ccc(-n2cccn2)s1` [Compound 9, N-propyl-5-(1H-pyrazol-1-yl)thiophene-2-carboxamide], the pIC50 is less than 3.60 in data set [1] (Table 2b); less than 4.52 in data set [1] (setting [15]); less than 4.52 in data set [2]; less than 5.00 in data set [3]; less than 5.00 in [4]. In addition, the pEC50 in data set [3] and in data set [4] was less than 5.00 in each case. Also, in [5], the solubility is more than 30 µg/mL. The same compound came in with a Papp in data set [6] of 22 ×10⁻⁶ cm/s. The pH-dependent lipophilicity (logD) in data set [7] was found to be 2.2. In addition, the “Cytochrome P450 Inhibition, 1A2” value in [8] was more than 5.0 in 1A2 μM. Moreover, the “Cytochrome P450 Inhibition, 2C19” value in data set [9] was more than 5.0 in 2C19 μM. The “Cytochrome P450 Inhibition, 2C9” value in data set [10] is on record as more than 5.0 in 2C9 μM. In addition, the “Cytochrome P450 Inhibition, 2D6” value in [11] is given as more than 5.0 in 2D6 μM. Moreover, the “Cytochrome P450 Inhibition, 3A4” value in data set [12] is on record as more than 5.0 in 3A4 μM. Besides, the results for the microsomal CLint in [13] and in [14] were 59 µL/min/mg and 104 µL/min/mg, respectively.

The record behind these values is patent US8703811B2, “Small molecule inhibitors of Plasmodium falciparum dihydroorotate dehydrogenase” (Genzyme Corporation, priority 2008, dated 2014).
